This is an account of results in patent publication US7816535B2, “Vinyl-phenyl derivatives for inflammation and immune-related uses” (Synta Pharmaceuticals Corp., priority 2006, dated 2010).

This test concerns IL-2 production. Put plainly: Inhibition of IL-2 production in PHA-activated Jurkat cells (ELISA). Particulars: PHA 2.5 μg/mL, IL-2 ELISA. It counts as cell-based. As for the experimental part:
Jurkat cells were placed in a 96 well plate (0.5 million cells per well in 1% FBS medium) then a test compound of this invention was added at different concentrations. After 10 minutes, the cells were activated with PHA (final concentration 2.5 μg/mL) and incubated for 20 hours at 37° C. under CO2. The final volume was 200 μL. Following incubation, the cells were centrifuged and the supernatants collected and stored at −70° C. prior to assaying for IL-2 production. A commercial ELISA kit (IL-2 Eli-pair, Diaclone Research, Besancon, France) was used to detect production of IL-2, from which dose response curves were obtained. The IC50 value was calculated as the concentration at which 50% of maximum IL-2 production after stimulation was inhibited versus a non-stimulation control.

Structures can show the parent of a compound that is named as a salt.

Consider `CC1=C(c2ccc(NC(=O)c3cncnc3C)cc2)CCCC1` [Compound 27, 4-Methyl-pyrimidine-5-carboxylic acid [4-(2-methyl-cyclohex-1-enyl)-phenyl]-amide], for which, for the setting “Homo sapiens, Jurkat, 20 h”, the IC50 (as a rule, the concentration at which inhibition is half-maximal) turned out to be 38.9 nM.

Take `CC1=C(c2ccc(NC(=O)c3ccncc3F)cc2)CN(c2nccs2)CC1` [Compound 74, N-[4-(1-thiazol-2-yl-4-methyl-1,2,5,6-tetrahydro-pyridin-3-yl)-phenyl]-3-fluoro-isonicotinamide, dihydrochloride]: the IC50 (20 hours, dihydrochloride) was 5 nM.

Turning to `CC1=C(c2ccc(NC(=O)c3c(F)cccc3F)cc2)CN(c2nccs2)CC1` [Compound 44, 2,6-Difluoro-N-[4-(1-thiazol-2-yl-4-methyl-1,2,5,6-tetrahydro-pyridin-3-yl)-phenyl]-benzamide], the half-inhibitory concentration (IC50) (Homo sapiens, Jurkat, 20 h) was determined as 12 nM.

Turning to `CC1=C(c2ccc(NC(=O)c3ccncc3F)cc2)CN(c2nccs2)CC1` [Compound 65, N-[4-(1-thiazol-2-yl-4-methyl-1,2,5,6-tetrahydro-pyridin-3-yl)-phenyl]-3-fluoro-isonicotinamide], for the setting “Homo sapiens, Jurkat, 20 h”, half-maximal inhibition (IC50) was put at 7.7 nM.

As for `CC(=O)[C@@H]1CCC(C)=C(c2ccc(NC(=O)c3ccncc3C)cc2)C1` [Compound 6, 3-Methyl-N-[4-(2-methyl-5(R)-acetyl-cyclohex-1-enyl)-phenyl]-isonicotinamide], the midpoint of inhibition (Homo sapiens, Jurkat, 20 h), the IC50, lay at 68 nM.

`CC1=C(c2ccc(NC(=O)c3ccncc3F)cc2)CN(C#N)CC1` [Compound 57] returned an IC50 (Homo sapiens, Jurkat, 20 h) of more than 1000 nM.

For the molecule `CC1=C(c2ccc(NC(=O)c3ccncc3C)cc2)CN(C(=O)OCc2ccccc2)CC1` [Compound 51, N-[4-(1-benzyloxycarbonyl-4-methyl-1,2,5,6-tetrahydro-pyridin-3-yl)-phenyl]-3-methyl-isonicotinamide], the IC50 (Homo sapiens, Jurkat, 20 h) came to 153 nM.

`C=CC1=C(c2ccc(NC(=O)c3c(F)cccc3F)cc2)CCN(C(=O)OC)CC1` [Compound 40, 2,6-Difluoro-N-[4-(1-methoxycarbonyl-5-vinyl-2,3,6,7-tetrahydro-1H-azepin-4-yl)-phenyl]-benzamide] returned a half-inhibitory concentration (IC50) (Homo sapiens, Jurkat, 20 h) of 22.8 nM.

Turning to `COc1cccc(C(=C(C)C)c2ccc(NC(=O)c3c(F)cccc3F)cc2)c1` [Compound 94, 2,6-Difluoro-N-{4-[2-methyl-1-(3-methoxy-phenyl)-propenyl]-phenyl}-benzamide], under “Homo sapiens, Jurkat, 20 h”, the IC50 was found to be 138 nM.

On to `O=C(Nc1ccc(C2=C(c3cnco3)CCCC2)cc1)c1ccncc1F` [Compound 24, N-[4-(2-oxazol-5-yl-cyclohexen-1-yl)-phenyl]-3-fluoroisonicotinamide], for which, for the setting “Homo sapiens, Jurkat, 20 h”, the IC50 stood at 68 nM.

Molecule `O=C(Nc1ccc(C2=C(CO)CCCCC2)cc1)c1c(F)cccc1F` [Compound 36, 2,6-Difluoro-N-[4-(2-hydroxymethyl-cyclohept-1-enyl)-phenyl]-benzamide] displayed an IC50 (Homo sapiens, Jurkat, 20 h) of more than 1000 nM.

For the molecule `CC1=C(c2ccc(NC(=O)c3c(F)cccc3F)cc2)CN(c2nc(C)c(C)o2)CC1` [Compound 82, 2,6-Difluoro-N-{4-[1-(4,5-dimethyl-oxazol-2-yl)-4-methyl-1,2,5,6-tetrahydro-pyridin-3-yl]-phenyl}-benzamide], half-maximal inhibition (Homo sapiens, Jurkat, 20 h) (IC50) required 59.5 nM.

Molecule `CCC1=C(c2ccc(NC(=O)c3c(F)cccc3F)cc2)CCCC1` [Compound 29, N-[4-(2-ethyl-cyclohex-1-enyl)-phenyl]-2,6-difluoro-benzamide] yielded an IC50 (Homo sapiens, Jurkat, 20 h) of 17.4 nM.

`CC1=C(c2ccc(NC(=O)c3ccncc3F)cc2)CN(c2ncco2)CC1` [Compound 71, N-[4-(1-oxazol-2-yl-4-methyl-1,2,5,6-tetrahydro-pyridin-3-yl)-phenyl]-3-fluoro-isonicotinamide]: where the note is “Homo sapiens, Jurkat, 20 h”, the IC50 worked out at 44 nM.

For the molecule `CCOC(=O)N1CCC(C)=C(c2ccc(NC(=O)c3ccncc3C)cc2)C1` [Compound 48, N-[4-(1-ethoxycarbonyl-4-methyl-1,2,5,6-tetrahydro-pyridin-3-yl)-phenyl]-3-methyl-isonicotinamide], the IC50 (Homo sapiens, Jurkat, 20 h) came to 156 nM.

Take `COC(=O)N1CCC(C(C)C)=C(c2ccc(NC(=O)c3c(F)cccc3F)cc2)C1` [Compound 42, 2,6-Difluoro-N-[4-(1-methoxycarbonyl-4-isopropyl-1,2,5,6-tetrahydro-pyridin-3-yl)-phenyl]-benzamide]: the midpoint of inhibition (Homo sapiens, Jurkat, 20 h), the IC50, lay at 11.9 nM.
